Measured values as given in patent US8889727B2, “Topical antifungal agent” (Meiji Seika Pharma Co., Ltd., priority 2011, dated 2014).
In brackets after ≈: the same amount, converted by molar mass.

How the values were obtained:
[1] = system: T. mentagrophytes ATCC18748; experiment: Measurement of antifungal activity (MIC, WST8 growth inhibition); assay type: cell-based; conditions: Trichophyton mentagrophytes, 72 h; 80% growth inhibition concentration; T. mentagrophytes ATCC18748, RPMI1640/MOPS, 28° C., 3 days
Procedure: (§1) The compounds for evaluation were dissolved in dimethyl sulfoxide (DMSO) and used. As the test medium, RPMI1640 medium containing 0.165 M 3-morpholino propane sulfonic acid (MOPS) was used. As the test strain, T. mentagrophytes ATCC18748 or T. rubrum ATCC10218 was used. 100 μL of the test strain each at a concentration of 1×10^4 conidia/mL was dispensed, mixed with compounds for evaluation on 96 well half area plate so that the concentration of DMSO becomes 1%, and cultured at 28° C. for 3 days (for T. mentagrophytes) or for 4 days (for T. rubrum). Then, 5 μL of Cell Counting Kit8 (WST8) was added and the absorbances at 450 nm and 595 nm was measured as background. Subsequently, they were incubated at 28° C. for 5 hours (for T. mentagrophytes) or overnight (for T. rubrum) to color, and again the absorbances at 450 nm and 595 nm was measured, and then calculated the growth inhibition percentages using the differences from the background, and 80% growth inhibition concentration was regarded as MIC (μg/ml). Measurement of antifungal activity was conducted by the following method. Compounds for evaluation were dissolved in dimethyl sulfoxide (DMSO) and used. As the test medium, RPMI1640 medium containing 0.165 M 3-morpholinopropane sulfonic acid (MOPS) was used. As the test strain, T. mentagrophytes ATCC18748 or T. rubrum ATCC10218 was used. 100 μL of the test strain was dispensed at a concentration of 1×10^4 conidia/mL, mixed with compounds for evaluation on 96 well half area plate so that the concentration of DMSO becomes 1%, and cultured at a culture temperature of 28° C. for 3 days (for T. mentagrophytes) or for 4 days (for T. rubrum). Then, 5 μL of Cell Counting Kit8 (WST8) was added and the absorbances at 450 nm and 595 nm was measured as background. Subsequently, they were incubated at 28° C. for 5 hours (for T. mentagrophytes) or overnight (for T. rubrum), and again measured the absorbances at 450 nm and 595 nm was measured, and then calculated the growth inhibition percentages using the differences from the background, and 80% growth inhibition concentration was regarded as MIC (μg/ml).

[2] = system: T. rubrum ATCC10218; experiment: as above; assay type: cell-based; conditions: Trichophyton rubrum, 96 h; 80% growth inhibition concentration; T. rubrum ATCC10218, RPMI1640/MOPS, 28° C., 4 days
Procedure: as §1

Compound	MIC [1] [µg/mL]	MIC [2] [µg/mL]	inhibition of growth at 32 µg/mL [1] [%]
COC(=O)c1ccc(-n2nc(C)cc2C)c(O)c1 [Example 35, Methyl 4-(3,5-dimethyl-1H-pyrazol-1-yl)-3-hydroxybenzene carboxylate]	16 to 32 (≈ 65 to 130 µM)	16 to 32 (≈ 65 to 130 µM)	–
CCc1cc(CC)n(-c2ccccc2O)n1 [Example 14, 2-(3,5-Diethyl-1H-pyrazol-1-yl)phenol]	2 to 8 (≈ 9.25 to 37 µM)	4 to 16 (≈ 18.5 to 74 µM)	–
CCc1ccc(-n2nc(C)cc2C)c(O)c1 [Example 52, 2-(3,5-dimethyl-1H-pyrazol-1-yl)-5-ethylphenol]	≤ 1	≤ 2	–
COC(=O)CCc1c(C)nn(-c2ccccc2O)c1C [Example 23, Methyl 3-(1-(2-hydroxyphenyl)-3,5-dimethyl-1H-pyrazol-4-yl)propanoate]	16 to 32 (≈ 58.3 to 117 µM)	32 to 64 (≈ 117 to 233 µM)	–
Cc1nn(-c2ccc(C(N)=O)cc2O)c(C)c1Cl [Example 42, 4-(4-Chloro-3,5-dimethyl-1H-pyrazol-1-yl)-3-hydroxybenzamide]	16 to 32 (≈ 60.2 to 120 µM)	32 to 64 (≈ 120 to 241 µM)	–
CCOC(=O)c1c(C)nn(-c2ccccc2O)c1C [Example 22, Ethyl 1-(2-hydroxyphenyl)-3,5-dimethyl-1H-pyrazol-4-carboxylate]	16 to 32 (≈ 61.5 to 123 µM)	32 to 64 (≈ 123 to 246 µM)	–
Cc1cc(C(F)(F)F)nn1-c1ccccc1O [Example 5, 2-(5-Methyl-3-trifluoromethyl-1H-pyrazol-1-yl)phenol]	16 to 32 (≈ 66.1 to 132 µM)	32 to 64 (≈ 132 to 264 µM)	–
Cc1nn(-c2ccc(C(N)=O)cc2O)c(C)c1C [Example 41, 3-Hydroxy-4-(3,4,5-trimethyl-1H-pyrazol-1-yl)benzamide]	–	32 to 64 (≈ 130 to 261 µM)	50 to 80
Cc1cc(C)n(-c2cc(Cl)ccc2O)n1 [Example 11, 4-Chloro-2-(3,5-dimethyl-1H-pyrazol-1-yl)phenol]	16 to 32 (≈ 71.9 to 144 µM)	32 to 64 (≈ 144 to 287 µM)	–
Oc1ccccc1-n1nc(C(F)(F)F)cc1C(F)(F)F [Example 6, 2-(3,5-Bistrifluoromethyl-1H-pyrazol-1-yl)phenol]	16 to 32 (≈ 54 to 108 µM)	> 64	–
Cc1nn(-c2ccccc2O)c(C)c1F [Example 53, 2-(4-Fluoro-3,5-dimethyl-1H-pyrazol-1-yl)phenol]	2 to 8 (≈ 9.7 to 38.8 µM)	4 to 16 (≈ 19.4 to 77.6 µM)	–
CCCCc1c(C)nn(-c2ccccc2O)c1C [Example 24, 2-(4-Butyl-3,5-dimethyl-1H-pyrazol-1-yl)phenol]	≤ 1	16 to 32 (≈ 65.5 to 131 µM)	–
CC(C)(C)c1cc(N)n(-c2ccccc2O)n1 [Example 10, 2-(5-Amino-3-tert-butyl-1H-pyrazol-1-yl)phenol]	–	> 64	50 to 80
Cc1cc(C)n(-c2c(C)cccc2O)n1 [Example 46, 2-(3,5-Dimethyl-1H-pyrazol-1-yl)-3-methylphenol]	–	32 to 64 (≈ 158 to 316 µM)	< 50
Cc1nn(-c2ccc(C(=O)O)cc2O)c(C)c1C [Example 40, 3-Hydroxy-4-(3,4,5-trimethyl-1H-pyrazol-1-yl)benzene carboxylic acid]	–	32 to 64 (≈ 130 to 260 µM)	< 50
Cc1nn(-c2ccccc2O)c(C)c1Cl [Example 13, 2-(4-Chloro-3,5-dimethyl-1H-pyrazol-1-yl)phenol]	≤ 1	4 to 16 (≈ 18 to 71.9 µM)	–
Cc1nn(-c2ccc(O)cc2O)c(C)c1Cl [Example 63, 4-(4-chloro-3,5-dimethyl-1H-pyrazol-1-yl)benzene-1,3-diol]	≤ 1	≤ 2	–
Cc1cc(C)n(-c2c(O)cccc2O)n1 [Example 43, 2-(3,5-Dimethyl-1H-pyrazol-1-yl)benzene-1,3-diol]	–	32 to 64 (≈ 157 to 313 µM)	< 50
Cc1cc(C)n(-c2ccc(CO)cc2O)n1 [Example 47, 2-(3,5-Dimethyl-1H-pyrazol-1-yl)-5-hydroxymethylphenol]	2 to 8 (≈ 9.16 to 36.7 µM)	4 to 16 (≈ 18.3 to 73.3 µM)	–
Cc1cc(C)n(-c2cc(Cl)c(C)cc2O)n1 [Example 61, 4-chloro-2-(3,5-dimethyl-1H-pyrazol-1-yl)-5-methylphenol]	16 to 32 (≈ 67.6 to 135 µM)	16 to 32 (≈ 67.6 to 135 µM)	–
